Test results as given in ChEMBL document CHEMBL5506074, “Discovery and Optimization of Tetrahydroisoquinoline Derivatives To Enhance Lysosome Biogenesis as Preclinical Candidates for the Treatment of Alzheimer's Disease” (J Med Chem, 2024).
Each block holds one compound with its values, some of them ahead of it. The source made the active and inactive calls. The calls are words filed in the database; no cut-off is given here.

Tests used:
[1] = Induction of TFEB nuclear translocation in human HeLa cells expressing EGFP at 10 uM measured at 3 hrs by fluorescence microscopic analysis; assay type: functional
[2] = Induction of TFEB nuclear translocation in human HeLa cells expressing EGFP at 10 uM measured at 6 hrs by fluorescence microscopic analysis; assay type: functional
[3] = Induction of TFEB nuclear translocation in human HeLa cells expressing EGFP at 30 uM measured at 3 hrs by fluorescence microscopic analysis; assay type: functional
[4] = Induction of TFEB nuclear translocation in human HeLa cells expressing EGFP at 30 uM measured at 6 hrs by fluorescence microscopic analysis; assay type: functional
[5] = Tmax in ICR mouse at 20 mg/kg, po measured upto 24 hrs by LC-MS/MS analysis; assay type: ADME, organism-based; conditions: in vivo
[6] = Tmax in ICR mouse at 10 mg/kg, ip measured upto 24 hrs by LC-MS/MS analysis; assay type: ADME, organism-based; conditions: in vivo
[7] = Half life in ICR mouse at 20 mg/kg, po measured upto 24 hrs by LC-MS/MS analysis; assay type: ADME, organism-based; conditions: in vivo
[8] = Half life in ICR mouse at 10 mg/kg, ip measured upto 24 hrs by LC-MS/MS analysis; assay type: ADME, organism-based; conditions: in vivo
[9] = Cmax in ICR mouse at 20 mg/kg, po measured upto 24 hrs by LC-MS/MS analysis; assay type: ADME, organism-based; conditions: in vivo
[10] = Cmax in ICR mouse at 10 mg/kg, ip measured upto 24 hrs by LC-MS/MS analysis; assay type: ADME, organism-based; conditions: in vivo
[11] = AUC (0 to t) in ICR mouse at 20 mg/kg, po measured upto 24 hrs by LC-MS/MS analysis; assay type: ADME, organism-based; conditions: ICR, in vivo
[12] = AUC (0 to t) in ICR mouse at 10 mg/kg, ip measured upto 24 hrs by LC-MS/MS analysis; assay type: ADME, organism-based; conditions: in vivo
[13] = AUC (0 to t) in ICR mouse at 5 mg/kg, iv measured upto 24 hrs by LC-MS/MS analysis; assay type: ADME, organism-based; conditions: ICR, in vivo
[14] = Clearance in ICR mouse at 5 mg/kg, iv measured upto 24 hrs by LC-MS/MS analysis; assay type: ADME, organism-based; conditions: in vivo
[15] = Bioavailability in ICR mouse at 5 mg/kg, ip measured upto 24 hrs by LC-MS/MS analysis; assay type: ADME, organism-based; conditions: in vivo
[16] = Oral bioavailability in ICR mouse at 20 mg/kg measured upto 24 hrs by LC-MS/MS analysis; assay type: ADME, organism-based; conditions: ICR, in vivo
[17] = Ratio of drug concentration in ICR mouse brain to plasma at 10 mg/kg, ip measured upto 24 hrs by LC-MS/MS analysis; assay type: ADME, organism-based; conditions: brain and plasma, read-out: BPR
[18] = Ratio of drug concentration in ICR mouse brain to plasma at 5 mg/kg, iv measured upto 24 hrs by LC-MS/MS analysis; assay type: ADME, organism-based; conditions: brain and plasma, read-out: BPR
HeLa [19] = assay: Induction of lysosome biogenesis in human HeLa cells assessed as increase in number of acidified lysosomes at 10 uM incubated for 24 hrs by LysiTracker red staining based flow cytometry analysis; assay type: functional, cell-based
HeLa [20] = assay: Upregulation of LAMP1 mRNA expression in human HeLa cells at 10 uM incubated for 24 hrs by qRT-PCR analysis; assay type: functional, cell-based
HeLa [21] = assay: Upregulation of HEXA mRNA expression in human HeLa cells at 10 uM incubated for 24 hrs by qRT-PCR analysis; assay type: functional, cell-based
HeLa [22] = assay: Upregulation of CTSD mRNA expression in human HeLa cells at 10 uM incubated for 24 hrs by qRT-PCR analysis; assay type: functional, cell-based
HeLa [23] = assay: Upregulation of CTSF mRNA expression in human HeLa cells at 10 uM incubated for 24 hrs by qRT-PCR analysis; assay type: functional, cell-based
HeLa [24] = assay: Upregulation of LC3B mRNA expression in human HeLa cells at 10 uM incubated for 24 hrs by qRT-PCR analysis; assay type: functional, cell-based
HeLa [25] = assay: Upregulation of OPTN mRNA expression in human HeLa cells at 10 uM incubated for 24 hrs by qRT-PCR analysis; assay type: functional, cell-based
HeLa [26] = assay: Upregulation of p62 mRNA expression in human HeLa cells at 10 uM incubated for 24 hrs by qRT-PCR analysis; assay type: functional, cell-based
HeLa [27] = assay: Upregulation of […] mRNA expression in human HeLa cells at 10 uM incubated for 24 hrs by qRT-PCR analysis; assay type: functional, cell-based
HeLa [28] = assay: Upregulation of ATG2A mRNA expression in human HeLa cells at 10 uM incubated for 24 hrs by qRT-PCR analysis; assay type: functional, cell-based
HeLa [29] = assay: Upregulation of GLA mRNA expression in human HeLa cells at 10 uM incubated for 24 hrs by qRT-PCR analysis; assay type: functional, cell-based
HeLa [30] = assay: Upregulation of Atg16L1 mRNA expression in human HeLa cells at 10 uM incubated for 24 hrs by qRT-PCR analysis; assay type: functional, cell-based
HeLa [31] = assay: Upregulation of UVRAG mRNA expression in human HeLa cells at 10 uM incubated for 24 hrs by qRT-PCR analysis; assay type: functional, cell-based
HeLa [32] = assay: Upregulation of LAMP1 mRNA expression in TFEB knockout human HeLa cells at 10 uM incubated for 24 hrs by qRT-PCR analysis; assay type: functional, cell-based
HeLa [33] = assay: Upregulation of HEXA mRNA expression in TFEB knockout human HeLa cells at 10 uM incubated for 24 hrs by qRT-PCR analysis; assay type: functional, cell-based
HeLa [34] = assay: Upregulation of CTSD mRNA expression in TFEB knockout human HeLa cells at 10 uM incubated for 24 hrs by qRT-PCR analysis; assay type: functional, cell-based
HeLa [35] = assay: Upregulation of CTSF mRNA expression in TFEB knockout human HeLa cells at 10 uM incubated for 24 hrs by qRT-PCR analysis; assay type: functional, cell-based
HeLa [36] = assay: Upregulation of LC3B mRNA expression in TFEB knockout human HeLa cells at 10 uM incubated for 24 hrs by qRT-PCR analysis; assay type: functional, cell-based
HeLa [37] = assay: Upregulation of OPTN mRNA expression in TFEB knockout human HeLa cells at 10 uM incubated for 24 hrs by qRT-PCR analysis; assay type: functional, cell-based
HeLa [38] = assay: Upregulation of p62 mRNA expression in TFEB knockout human HeLa cells at 10 uM incubated for 24 hrs by qRT-PCR analysis; assay type: functional, cell-based
HeLa [39] = assay: Upregulation of […] mRNA expression in TFEB knockout human HeLa cells at 10 uM incubated for 24 hrs by qRT-PCR analysis; assay type: functional, cell-based
HeLa [40] = assay: Upregulation of ATG2A mRNA expression in TFEB knockout human HeLa cells at 10 uM incubated for 24 hrs by qRT-PCR analysis; assay type: functional, cell-based
HeLa [41] = assay: Upregulation of GLA mRNA expression in TFEB knockout human HeLa cells at 10 uM incubated for 24 hrs by qRT-PCR analysis; assay type: functional, cell-based
HeLa [42] = assay: Upregulation of Atg16L1 mRNA expression in TFEB knockout human HeLa cells at 10 uM incubated for 24 hrs by qRT-PCR analysis; assay type: functional, cell-based
HeLa [43] = assay: Upregulation of UVRAG mRNA expression in TFEB knockout human HeLa cells at 10 uM incubated for 24 hrs by qRT-PCR analysis; assay type: functional, cell-based
[44] = Volume of distribution at steady state in ICR mouse measured upto 24 hrs by LC-MS/MS analysis; assay type: ADME; conditions: in vivo, read-out: Vdss
HeLa [45] = assay: Cytotoxicity against human HeLa cells at 30 uM; assay type: toxicity, cell-based

Tmax [5]: 25.2 min | Tmax [6]: 10.8 min | half-life [7]: 216 min | half-life [8]: 58.2 min | Cmax [9]: 9.14 ng/mL | Cmax [10]: 620 ng/mL | AUC(0-t) at 24 h [11]: 16.3 ng·h/mL | AUC(0-t) at 24 h [12]: 609 ng·h/mL | AUC(0-t) at 24 h [13]: 604 ng·h/mL | clearance [14]: 140 mL/min/kg | bioavailability [15]: 50.4% | bioavailability [16]: 0.67% | Kp at 24 h [17]: 1.9 | Kp at 24 h [18]: 2.2 | Vd [44]: 8.66 L/kg
Compound: COc1cc2c(cc1OC)C(CCc1c[nH]c3ccccc13)N(CC1CCOCC1)CC2 (stereo not drawn)
Activity [1]: 27% | Activity [2]: 47% | Activity [3]: 85% | Activity [4]: 85% | Activity (HeLa [19]): Active | Activity (HeLa [20]): Active | Activity (HeLa [21]): Active | Activity (HeLa [22]): Active | Activity (HeLa [23]): Active | Activity (HeLa [24]): Active | Activity (HeLa [25]): Active | Activity (HeLa [26]): Active | Activity (HeLa [27]): Active | Activity (HeLa [28]): Active | Activity (HeLa [29]): Active | Activity (HeLa [30]): Active | Activity (HeLa [31]): Active | Activity (HeLa [32]): Active | Activity (HeLa [33]): Active | Activity (HeLa [34]): Active | Activity (HeLa [35]): Active | Activity (HeLa [36]): Active | Activity (HeLa [37]): Active | Activity (HeLa [38]): Active | Activity (HeLa [39]): Active | Activity (HeLa [40]): Active | Activity (HeLa [41]): Active | Activity (HeLa [42]): Active | Activity (HeLa [43]): Active

Compound: c1ccc2c(CCC3c4cc5c(cc4CCN3CC3CCNCC3)OCO5)c[nH]c2c1 (stereo not drawn)
Activity [1]: 22% | Activity [2]: 35% | Activity [3]: 96% | Activity [4]: 100% | Activity (HeLa [45]): Toxic

Compound: COc1cc2c(cc1O)C(CCc1c[nH]c3ccccc13)N(CC1CCOCC1)CC2 (stereo not drawn)
Activity [1]: 22% | Activity [2]: 37% | Activity [3]: 75% | Activity [4]: 77% | Activity (HeLa [45]): Toxic

Compound: Oc1cc2c(cc1O)C(CCc1c[nH]c3ccccc13)N(CC1CCOCC1)CC2 (stereo not drawn)
Activity [1]: 10% | Activity [2]: 10% | Activity [3]: 28% | Activity [4]: 60% | Activity (HeLa [45]): Toxic

Compound: CC(C)N1CCc2cc3c(cc2C1CCc1c[nH]c2ccccc12)OCO3 (stereo not drawn)
Activity [1]: 22% | Activity [2]: 33% | Activity [3]: 70% | Activity [4]: 75% | Activity (HeLa [19]): Active

Compound: c1ccc2c(CCC3c4cc5c(cc4CCN3Cc3ccncc3)OCO5)c[nH]c2c1 (stereo not drawn)
Activity [1]: 45% | Activity [2]: 50% | Activity [3]: 80% | Activity [4]: 90%
